Measurements published in US9493432B2, “Cyclopentylbenzamide derivatives and their use for the treatment of psychotic and cognitive disorders” (Takeda Pharmaceutical Company Limited, priority 2013, dated 2016).

Tests used:
[1] = biological target: human orexin receptor 1 (Homo sapiens (Human), UniProt O43613); assay: Orexin antagonist activity, intracellular calcium FLIPR assay (orexin receptor 1); type: cell-based; settings: RBL-2H3 cells stably expressing human orexin receptor 1; Ca2+ dye FLIPR; compound 15 minutes before orexin-A at approximately 80% maximal response; read-out: Human Orexin1R IC50
Chain of human orexin receptor 1 (O43613 whole entry): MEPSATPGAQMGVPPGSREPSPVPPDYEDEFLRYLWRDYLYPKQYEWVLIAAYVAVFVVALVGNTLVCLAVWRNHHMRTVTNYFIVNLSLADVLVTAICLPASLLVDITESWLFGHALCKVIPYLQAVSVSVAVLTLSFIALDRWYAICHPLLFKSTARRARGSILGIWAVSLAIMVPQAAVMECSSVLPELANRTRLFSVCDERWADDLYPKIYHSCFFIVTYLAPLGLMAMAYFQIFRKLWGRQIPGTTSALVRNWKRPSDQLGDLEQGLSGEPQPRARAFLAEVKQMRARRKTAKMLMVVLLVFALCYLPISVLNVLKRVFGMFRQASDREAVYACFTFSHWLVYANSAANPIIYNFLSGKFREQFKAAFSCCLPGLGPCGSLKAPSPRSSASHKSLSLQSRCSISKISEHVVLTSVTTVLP
Protocol: (§1) Orexin antagonist activity was determined by measuring changes in intracellular calcium levels using a Ca^2+ sensitive fluorescent dye. The changes in fluorescent signal were monitored by Fluorescent Imaging Plate Reader (FLIPR™) technology available from Molecular Devices, LLC, U.S.A. Orexin mediated increases in intracellular Ca^2+ concentration were readily detected upon activation with orexin-A. Twenty-four hours prior to the assay, RBL-2H3 cells stably expressing either human orexin receptor 1 or human orexin receptor 2 were seeded in cell culture medium in black, clear-bottom 384-well plates (commercially available from Corning Inc., U.S.A.) and grown overnight at 37° C., 5% CO2. On the day of the assay, cell culture media was removed and cells were loaded with Calcium 5 Dye (commercially sold by Molecular Devices, LLC, U.S.A.) for 1 hour at 37° C., 5% CO2. Test compounds (at 10 point half log concentration response curves from 10 μM) were added to cells for 15 minutes prior to the addition of orexin-A to all wells, to achieve a final concentration that produces approximately an 80% maximal response. The IC50 values were determined from ten point concentration response curves. Curves were generated using the average of two wells for each data point.

[2] = biological target: human orexin receptor 2 (Homo sapiens (Human), UniProt O43614); assay: Orexin antagonist activity, intracellular calcium FLIPR assay (orexin receptor 2); type: cell-based; settings: RBL-2H3 cells stably expressing human orexin receptor 2; Ca2+ dye FLIPR; compound 15 minutes before orexin-A at approximately 80% maximal response; read-out: Human Orexin2R IC50
Chain of human orexin receptor 2 (O43614 whole entry): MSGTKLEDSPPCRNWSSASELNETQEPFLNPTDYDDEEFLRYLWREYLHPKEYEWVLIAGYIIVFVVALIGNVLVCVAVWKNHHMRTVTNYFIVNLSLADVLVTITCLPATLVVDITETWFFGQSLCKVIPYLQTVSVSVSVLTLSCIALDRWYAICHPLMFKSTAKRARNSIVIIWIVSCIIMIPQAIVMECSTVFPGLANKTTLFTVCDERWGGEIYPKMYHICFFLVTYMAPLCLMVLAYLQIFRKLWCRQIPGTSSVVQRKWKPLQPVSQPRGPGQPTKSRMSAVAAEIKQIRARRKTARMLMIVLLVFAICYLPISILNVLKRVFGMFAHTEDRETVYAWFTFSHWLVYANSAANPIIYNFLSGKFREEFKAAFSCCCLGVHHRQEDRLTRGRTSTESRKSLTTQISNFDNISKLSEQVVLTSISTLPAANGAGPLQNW
Protocol: as §1

Structure (SMILES) | IC50 [1] | IC50 [2]
Cc1ccc(-n2ccnn2)c(C(=O)N[C@H]2CCC[C@@H]2Nc2nc3ccc(F)cc3s2)c1 [Example 38, N-[(1S,2S)-2-[(6-Fluoro-1,3-benzothiazol-2-yl)amino]cyclopentyl]-5-methyl-2-(1H-1,2,3-triazol-1-yl)benzamide] | 13 nM | > 10000 nM
Cc1noc(-c2ccccc2C(=O)N[C@H]2CCC[C@@H]2Nc2nc3ccc(F)cc3s2)n1 [Example 39, N-[(1S,2S)-2-[(6-Fluoro-1,3-benzothiazol-2-yl)amino]cyclopentyl]-2-(3-methyl-1,2,4-oxadiazol-5-yl)benzamide] | 14 nM | 3800 nM
O=C(N[C@H]1CCC[C@@H]1Nc1nc2ccc(F)cc2s1)c1ccccc1-c1ncccn1 [Example 40, N-[(1S,2S)-2-[(6-Fluoro-1,3-benzothiazol-2-yl)amino]cyclopentyl]-2-(pyrimidin-2-yl)benzamide] | 15 nM | 3300 nM
COc1ccc(OC)c(C(=O)N[C@H]2CCC[C@@H]2Nc2nc3ccc(F)cc3s2)c1 [Example 41, N-[(1S,2S)-2-[(6-Fluoro-1,3-benzothiazol-2-yl)amino]cyclopentyl]-2,5-dimethoxybenzamide] | 16 nM | 2100 nM
O=C(N[C@H]1CCC[C@@H]1Nc1nc2ccc(F)cc2s1)c1ccccc1-n1ccnc1 [Example 43, N-[(1S,2S)-2-[(6-Fluoro-1,3-benzothiazol-2-yl)amino]cyclopentyl]-2-(1H-imidazol-1-yl)benzamide] | 39 nM | > 10000 nM
O=C(N[C@H]1CCC[C@@H]1Nc1nc2ccc(F)cc2s1)c1ccccc1-n1cncn1 [Example 44, N-[(1S,2S)-2-[(6-Fluoro-1,3-benzothiazol-2-yl)amino]cyclopentyl]-2-(1H-1,2,4-triazol-1-yl)benzamide] | 51 nM | > 10000 nM
CCOc1ccccc1C(=O)N[C@H]1CCC[C@@H]1Nc1nc2ccc(F)cc2s1 [Example 49, 2-Ethoxy-N-[(1S,2S)-2-[(6-fluoro-1,3-benzothiazol-2-yl)amino]cyclopentyl]-benzamide] | 190 nM | 1400 nM
O=C(N[C@H]1CCC[C@@H]1Nc1nc2ccc(F)cc2s1)c1ccccc1-n1nccn1 [Example 59, N-[(1S,2S)-2-[(6-Fluoro-1,3-benzothiazol-2-yl)amino]cyclopentyl]-2-(2H-1,2,3-triazol-2-yl)benzamide] | 11 nM | 6700 nM
Cc1ccc(-n2nccn2)c(C(=O)NC2CCCC2Cc2cnc3ccccc3n2)c1 (stereo not drawn) [Example 63, 5-Methyl-N-[2-(quinoxalin-2-ylmethyl)cyclopentyl]-2-(2H-1,2,3-triazol-2-yl)benzamide] | 48 nM | 4200 nM
COc1cccc(OC)c1C(=O)N[C@H]1CCC[C@@H]1Nc1nc2ccc(F)cc2o1 [Example 66, N-[(1S,2S)-2-[(6-Fluoro-1,3-benzoxazol-2-yl)amino]cyclopentyl]-2,6-dimethoxybenzamide] | 50 nM | > 10000 nM
Cc1nnc(-c2ccccc2C(=O)N[C@H]2CCC[C@@H]2Nc2nc3ccc(F)cc3s2)o1 [Example 72, N-[(1S,2S)-2-[(6-Fluoro-1,3-benzothiazol-2-yl)amino]cyclopentyl]-2-(5-methyl-1,3,4-oxadiazol-2-yl)benzamide] | 14 nM | > 10000 nM
O=C(N[C@H]1CCC[C@@H]1Nc1nc2ccc(F)cc2s1)c1ccccc1-n1ccnn1 [Example 73, N-[(1S,2S)-2-[(6-Fluoro-1,3-benzothiazol-2-yl)amino]cyclopentyl]-2-(1H-1,2,3-triazol-1-yl)benzamide] | 35 nM | > 10000 nM
COc1ccccc1C(=O)N(C)[C@H]1CCC[C@@H]1Nc1nc2ccc(F)cc2s1 [Example 77, N-[(1S,2S)-2-[(6-Fluoro-1,3-benzothiazol-2-yl)amino]cyclopentyl]-2-methoxy-N-methylbenzamide] | 25 nM | 1600 nM
CN(C(=O)c1ccccc1Cl)[C@H]1CCC[C@@H]1Nc1nc2ccc(F)cc2s1 [Example 78, 2-Chloro-N-[(1S,2S)-2-[(6-fluoro-1,3-benzothiazol-2-yl)amino]cyclopentyl]-N-methylbenzamide] | 20 nM | 2400 nM
CN(C(=O)c1ccccc1-n1cccn1)[C@H]1CCC[C@@H]1Nc1nc2ccc(F)cc2s1 [Example 79, N-[(1S,2S)-2-[(6-Fluoro-1,3-benzothiazol-2-yl)amino]cyclopentyl]-N-methyl-2-(1H-pyrazol-1-yl)benzamide] | 1 nM | 1100 nM
CN(C(=O)c1ccccc1-n1nccn1)[C@H]1CCC[C@@H]1Nc1nc2ccc(F)cc2s1 [Example 80, N-[(1S,2S)-2-[(6-Fluoro-1,3-benzothiazol-2-yl)amino]cyclopentyl]-N-methyl-2-(2H-1,2,3-triazol-2-yl)benzamide] | 1 nM | 650 nM
CN(C(=O)c1cc(F)ccc1-n1nccn1)[C@H]1CCC[C@@H]1Nc1nc2ccc(F)cc2s1 [Example 81, 5-Fluoro-N-[(1S,2S)-2-[(6-fluoro-1,3-benzothiazol-2-yl)amino]cyclopentyl]-N-methyl-2-(2H-1,2,3-triazol-2-yl)benzamide] | 1 nM | 840 nM

The next lines start with the values.

IC50 [1] | IC50 [2] | Structure (SMILES)
110 nM | 6300 nM | COc1cccc(F)c1C(=O)N[C@H]1CCC[C@@H]1Nc1nc2ccc(F)cc2s1 [Example 46, 2-Fluoro-N-[(1S,2S)-2-[(6-fluoro-1,3-benzothiazol-2-yl)amino]cyclopentyl]-6-methoxybenzamide]
150 nM | > 10000 nM | O=C(N[C@H]1CCC[C@@H]1Nc1nc2ccc(F)cc2s1)c1c(F)cccc1F [Example 47, 2,6-Difluoro-N-[(1S,2S)-2-[(6-fluoro-1,3-benzothiazol-2-yl)amino]-cyclopentyl]benzamide]
160 nM | 3700 nM | O=C(N[C@H]1CCC[C@@H]1Nc1nc2ccc(F)cc2s1)c1ccccc1F [Example 48, 2-Fluoro-N-[(1S,2S)-2-[(6-fluoro-1,3-benzothiazol-2-yl)amino]cyclopentyl]-benzamide]
190 nM | 3400 nM | COc1ccccc1C(=O)N[C@H]1CCC[C@@H]1Nc1nc2ccc(F)cc2s1 [Example 50, N-[(1S,2S)-2-[(6-Fluoro-1,3-benzothiazol-2-yl)amino]cyclopentyl]-2-methoxybenzamide]
280 nM | 3300 nM | COc1ccc(F)cc1C(=O)N[C@H]1CCC[C@@H]1Nc1nc2ccc(F)cc2s1 [Example 53, 5-Fluoro-N-[(1S,2S)-2-[(6-fluoro-1,3-benzothiazol-2-yl)amino]cyclopentyl]-2-methoxybenzamide]
310 nM | 3500 nM | COc1c(F)cccc1C(=O)N[C@H]1CCC[C@@H]1Nc1nc2ccc(F)cc2s1 [Example 54, 3-Fluoro-N-[(1S,2S)-2-[(6-fluoro-1,3-benzothiazol-2-yl)amino]cyclopentyl]-2-methoxybenzamide]
110 nM | 6500 nM | COc1ccc(C)cc1C(=O)N[C@H]1CCC[C@@H]1Nc1nc2ccc(F)cc2s1 [Example 67, N-[(1S,2S)-2-[(6-Fluoro-1,3-benzothiazol-2-yl)amino]cyclopentyl]-2-methoxy-5-methylbenzamide]
320 nM | > 10000 nM | Cc1cccc(C)c1C(=O)N[C@H]1CCC[C@@H]1Nc1nc2ccc(F)cc2s1 [Example 68, N-[(1S,2S)-2-[(6-Fluoro-1,3-benzothiazol-2-yl)amino]cyclopentyl]-2,6-dimethylbenzamide]
15 nM | 3200 nM | O=C(N[C@H]1CCC[C@@H]1Nc1nc2ccc(F)cc2s1)c1c(F)cccc1-n1nccn1 [Example 69, 2-Fluoro-N-[(1S,2S)-2-[(6-fluoro-1,3-benzothiazol-2-yl)amino]cyclopentyl]-6-(2H-1,2,3-triazol-2-yl)benzamide]
38 nM | > 10000 nM | O=C(N[C@H]1CCC[C@@H]1Nc1nc2ccc(F)cc2s1)c1c(F)cccc1Cl [Example 70, 2-Chloro-6-fluoro-N-[(1S,2S)-2-[(6-fluoro-1,3-benzothiazol-2-yl)amino]cyclopentyl]benzamide]
24 nM | 4200 nM | O=C(N[C@H]1CCC[C@@H]1Nc1nc2ccc(F)cc2s1)c1c(Cl)cccc1-n1nccn1 [Example 71, 2-Chloro-N-[(1S,2S)-2-[(6-fluoro-1,3-benzothiazol-2-yl)amino]cyclopentyl]-6-(2H-1,2,3-triazol-2-yl)benzamide]
38 nM | 2100 nM | O=C(N[C@H]1CCC[C@@H]1Nc1nc2ccc(F)cc2s1)c1cc(Cl)ccc1-n1cccn1 [Example 74, 5-Chloro-N-[(1S,2S)-2-[(6-fluoro-1,3-benzothiazol-2-yl)amino]cyclopentyl]-2-(1H-pyrazol-1-yl)benzamide]
23 nM | 2500 nM | CN(C(=O)c1c(F)cccc1F)[C@H]1CCC[C@@H]1Nc1nc2ccc(F)cc2s1 [Example 76, 2,6-Difluoro-N-[(1S,2S)-2-[(6-fluoro-1,3-benzothiazol-2-yl)amino]cyclopentyl]-N-methylbenzamide]
